Source: the NIST ThermoML archive (doi:10.1021/acs.jced.6b00350)
Several values for one entry are separate records, joined by “and”; a condition that tells them apart may be missing. Equal values may be shown once. ± gives the expanded uncertainty stated by the source.

Settings: Liquid, Hot wire method

FC(F)CC(F)(F)F [1,1,1,3,3-pentafluoropropane]
Settings	thermal conductivity
201.86 K, 21419 kPa	0.124 ± 0.0016 W/m/K
201.86 K, 21433 kPa	0.1239 ± 0.0016 W/m/K
201.87 K, 27158 kPa	0.1248 ± 0.0016 W/m/K
202.1 K, 4763 kPa	0.1206 ± 0.0015 W/m/K
202.12 K, 10088 kPa	0.1217 ± 0.0015 W/m/K
202.12 K, 10097 kPa	0.1218 ± 0.0015 W/m/K
202.15 K, 15804 kPa	0.1229 ± 0.0016 W/m/K
202.15 K, 15839 kPa	0.1229 ± 0.0016 W/m/K
202.2 K, 267 kPa	0.1193 ± 0.0015 W/m/K
202.2 K, 275 kPa	0.1195 ± 0.0015 W/m/K
202.2 K, 21408 kPa	0.1237 ± 0.0016 W/m/K
202.2 K, 21420 kPa	0.1237 ± 0.0016 W/m/K
202.21 K, 27161 kPa	0.1249 ± 0.0016 W/m/K
202.23 K, 27677 kPa	0.1252 ± 0.0016 W/m/K
202.24 K, 27673 kPa	0.1255 ± 0.0016 W/m/K
202.24 K, 33666 kPa	0.1267 ± 0.0016 W/m/K
202.24 K, 33675 kPa	0.1266 ± 0.0016 W/m/K
202.26 K, 40147 kPa	0.1279 ± 0.0016 W/m/K
202.26 K, 40151 kPa	0.1278 ± 0.0016 W/m/K
202.27 K, 46773 kPa	0.129 ± 0.0016 W/m/K
202.27 K, 46779 kPa	0.1291 ± 0.0016 W/m/K
202.27 K, 53774 kPa	0.1304 ± 0.0016 W/m/K
202.28 K, 53774 kPa	0.1304 ± 0.0016 W/m/K
202.28 K, 60672 kPa	0.1313 ± 0.0017 W/m/K
202.28 K, 60684 kPa	0.1319 ± 0.0017 W/m/K
202.29 K, 67566 kPa	0.1328 ± 0.0017 W/m/K
202.29 K, 67588 kPa	0.1327 ± 0.0017 W/m/K
202.48 K, 4763 kPa	0.1205 ± 0.0015 W/m/K
202.49 K, 10097 kPa	0.1216 ± 0.0015 W/m/K
202.49 K, 10103 kPa	0.1216 ± 0.0015 W/m/K
202.52 K, 15780 kPa	0.1229 ± 0.0016 W/m/K
202.52 K, 15825 kPa	0.1229 ± 0.0016 W/m/K
202.57 K, 21412 kPa	0.1238 ± 0.0016 W/m/K
202.57 K, 21416 kPa	0.1237 ± 0.0016 W/m/K
202.57 K, 27164 kPa	0.1249 ± 0.0016 W/m/K
202.58 K, 275 kPa	0.1195 ± 0.0015 W/m/K
202.58 K, 288 kPa	0.1194 ± 0.0015 W/m/K
202.59 K, 27679 kPa	0.1253 ± 0.0016 W/m/K
202.59 K, 27683 kPa	0.1253 ± 0.0016 W/m/K
202.59 K, 33679 kPa	0.1264 ± 0.0016 W/m/K
202.6 K, 33675 kPa	0.1265 ± 0.0016 W/m/K
202.61 K, 40142 kPa	0.1278 ± 0.0016 W/m/K
202.62 K, 40147 kPa	0.1278 ± 0.0016 W/m/K
202.62 K, 46778 kPa	0.129 ± 0.0016 W/m/K
202.62 K, 46780 kPa	0.1289 ± 0.0016 W/m/K
202.62 K, 53770 kPa	0.1302 ± 0.0016 W/m/K and 0.1303 ± 0.0016 W/m/K
202.63 K, 60672 kPa	0.1318 ± 0.0017 W/m/K
202.63 K, 60673 kPa	0.1317 ± 0.0017 W/m/K
202.63 K, 67539 kPa	0.1325 ± 0.0017 W/m/K
202.63 K, 67552 kPa	0.1327 ± 0.0017 W/m/K
202.89 K, 4767 kPa	0.1203 ± 0.0015 W/m/K
202.89 K, 4772 kPa	0.1204 ± 0.0015 W/m/K
202.9 K, 10110 kPa	0.1216 ± 0.0015 W/m/K
202.92 K, 15810 kPa	0.1227 ± 0.0016 W/m/K
202.92 K, 15863 kPa	0.1227 ± 0.0016 W/m/K
202.97 K, 21416 kPa	0.1236 ± 0.0016 W/m/K
202.97 K, 21421 kPa	0.1236 ± 0.0016 W/m/K
202.97 K, 27152 kPa	0.1247 ± 0.0016 W/m/K
202.97 K, 27157 kPa	0.1247 ± 0.0016 W/m/K
202.98 K, 27682 kPa	0.1253 ± 0.0016 W/m/K
202.98 K, 33690 kPa	0.1266 ± 0.0016 W/m/K
202.99 K, 306 kPa	0.1193 ± 0.0015 W/m/K
202.99 K, 337 kPa	0.1194 ± 0.0015 W/m/K
202.99 K, 27679 kPa	0.1252 ± 0.0016 W/m/K
202.99 K, 33685 kPa	0.1265 ± 0.0016 W/m/K
203 K, 40148 kPa	0.1278 ± 0.0016 W/m/K
203 K, 46783 kPa	0.1289 ± 0.0016 W/m/K and 0.129 ± 0.0016 W/m/K
203 K, 53771 kPa	0.1302 ± 0.0016 W/m/K
203 K, 53775 kPa	0.1301 ± 0.0016 W/m/K
203 K, 60661 kPa	0.1314 ± 0.0017 W/m/K
203 K, 60670 kPa	0.1314 ± 0.0017 W/m/K
203 K, 67499 kPa	0.1327 ± 0.0017 W/m/K
203 K, 67521 kPa	0.1326 ± 0.0017 W/m/K
203.01 K, 40146 kPa	0.1276 ± 0.0016 W/m/K
203.32 K, 4769 kPa	0.1202 ± 0.0015 W/m/K
203.32 K, 4775 kPa	0.1202 ± 0.0015 W/m/K
203.33 K, 10125 kPa	0.1214 ± 0.0015 W/m/K
203.33 K, 10131 kPa	0.1214 ± 0.0015 W/m/K
203.34 K, 15898 kPa	0.1226 ± 0.0016 W/m/K
203.35 K, 15840 kPa	0.1227 ± 0.0016 W/m/K
203.39 K, 27154 kPa	0.1246 ± 0.0016 W/m/K
203.39 K, 27157 kPa	0.1243 ± 0.0016 W/m/K
203.4 K, 21419 kPa	0.1235 ± 0.0016 W/m/K
203.4 K, 33699 kPa	0.1263 ± 0.0016 W/m/K
203.4 K, 67478 kPa	0.1323 ± 0.0017 W/m/K
203.41 K, 27689 kPa	0.1252 ± 0.0016 W/m/K
203.41 K, 33685 kPa	0.1264 ± 0.0016 W/m/K
203.41 K, 46771 kPa	0.1289 ± 0.0016 W/m/K
203.41 K, 46773 kPa	0.1287 ± 0.0016 W/m/K
203.41 K, 53771 kPa	0.1302 ± 0.0016 W/m/K
203.41 K, 53772 kPa	0.1301 ± 0.0016 W/m/K
203.41 K, 60658 kPa	0.1313 ± 0.0017 W/m/K
203.41 K, 60664 kPa	0.1315 ± 0.0017 W/m/K
203.41 K, 67491 kPa	0.1325 ± 0.0017 W/m/K
203.42 K, 40141 kPa	0.1277 ± 0.0016 W/m/K
203.42 K, 40147 kPa	0.1276 ± 0.0016 W/m/K
203.43 K, 372 kPa	0.119 ± 0.0015 W/m/K
203.43 K, 393 kPa	0.1193 ± 0.0015 W/m/K
203.83 K, 67450 kPa	0.1325 ± 0.0017 W/m/K
203.83 K, 67465 kPa	0.1324 ± 0.0017 W/m/K
203.84 K, 53769 kPa	0.13 ± 0.0016 W/m/K
203.84 K, 60649 kPa	0.1313 ± 0.0017 W/m/K and 0.1311 ± 0.0017 W/m/K
203.85 K, 27696 kPa	0.1251 ± 0.0016 W/m/K
203.85 K, 33690 kPa	0.1263 ± 0.0016 W/m/K
203.85 K, 33700 kPa	0.1263 ± 0.0016 W/m/K
203.85 K, 46765 kPa	0.1288 ± 0.0016 W/m/K
203.85 K, 46774 kPa	0.1288 ± 0.0016 W/m/K
203.85 K, 53757 kPa	0.13 ± 0.0016 W/m/K
203.86 K, 27682 kPa	0.125 ± 0.0016 W/m/K
203.86 K, 40135 kPa	0.1275 ± 0.0016 W/m/K
203.86 K, 40141 kPa	0.1276 ± 0.0016 W/m/K
221.72 K, 250 kPa	0.1129 ± 0.0014 W/m/K
221.72 K, 251 kPa	0.113 ± 0.0014 W/m/K
221.73 K, 4830 kPa	0.1143 ± 0.0014 W/m/K
221.73 K, 4854 kPa	0.1145 ± 0.0015 W/m/K
221.74 K, 10031 kPa	0.1155 ± 0.0015 W/m/K
221.75 K, 10011 kPa	0.1159 ± 0.0015 W/m/K
221.76 K, 15754 kPa	0.1169 ± 0.0015 W/m/K
221.76 K, 15760 kPa	0.1169 ± 0.0015 W/m/K
221.77 K, 21259 kPa	0.1183 ± 0.0015 W/m/K
221.77 K, 21264 kPa	0.1188 ± 0.0015 W/m/K
221.78 K, 27420 kPa	0.1202 ± 0.0015 W/m/K
221.78 K, 27443 kPa	0.1204 ± 0.0015 W/m/K
222 K, 39755 kPa	0.1236 ± 0.0016 W/m/K
222 K, 39756 kPa	0.1236 ± 0.0016 W/m/K
222 K, 47190 kPa	0.1252 ± 0.0016 W/m/K
222.01 K, 47202 kPa	0.1258 ± 0.0016 W/m/K
222.01 K, 54322 kPa	0.1269 ± 0.0016 W/m/K
222.01 K, 54323 kPa	0.1269 ± 0.0016 W/m/K
222.02 K, 61325 kPa	0.1285 ± 0.0016 W/m/K
222.02 K, 61363 kPa	0.1286 ± 0.0016 W/m/K
222.02 K, 67941 kPa	0.1302 ± 0.0016 W/m/K
222.02 K, 67960 kPa	0.13 ± 0.0016 W/m/K
222.09 K, 253 kPa	0.1125 ± 0.0014 W/m/K
222.09 K, 4859 kPa	0.1139 ± 0.0014 W/m/K
222.09 K, 4863 kPa	0.1139 ± 0.0014 W/m/K
222.1 K, 247 kPa	0.1124 ± 0.0014 W/m/K
222.11 K, 10038 kPa	0.1155 ± 0.0015 W/m/K
